This is an account of results in US20240277873A1, “ULTRABRIGHT […] PROBES FOR DETECTION AND IMAGING” (Nanyang Technological University, priority 2021, published 2024).

For one test, the system named is IMQ-induced psoriasis. Briefly: Real-time chemiluminescence imaging in IMQ-induced psoriasis model. To be noted: 3 min post-topical administration of BTPDNe, microneedle. It is filed as in vivo, BALB/c mice. The procedure:
(§1) The control group was treated with Vaseline (50 mg/d) and the IMQ-treatment group was applied with IMQ cream (60 mg/d, 5%) once a day. […] Probe BTPDNe (10 uM, 1 mM in DMSO) was thoroughly mixed with Aquaphor (˜10 mg) and applied for psoriasis imaging, followed by poly(methyl methacrylate) microneedle treatment for 1 min. Then, chemiluminescent signals at different time-points (0, 3, 5, 10, 15, 30, 45 and 60 min) after probe-treatment were recorded using IVIS system bioluminescence with acquiring time of 180 s. Until the third day, all the mice were sacrificed to collect tissue and blood for further experiments (hematoxylin and eosin (H&E) staining and flow cytometry analysis) as described in Example 11.

The test system of the next test is dorsal skins of mice. As to the kind of experiment: Histopathologic, immunohistochemical and flow cytometry analyses of dorsal skins (IMQ psoriasis model). It is filed as in vivo, BALB/c mice. To be noted: fresh slides of dorsal skins, 2-day IMQ treatment, immunofluorescence. The procedure: as §1
The dorsal skin samples were separated and soaked in 4% paraformaldehyde (4% PFA) for 12 h and immersed in 30% sucrose solution. The skin samples were stained by hematoxylin and eosin (H&E). Then, the samples were flash-frozen by liquid nitrogen, immobilized with optimal cutting temperature compound, and section slices ([…]). The thickness of epidermis was observed under a microscope (Nikon ECLIPSE 80i microscope). APC-Ly6G, as a neutrophil marker, was used to stain neutrophil cells and DAPI was applied for cell nucleus staining. The immunofluorescence was observed by Nikon ECLIPSE 80i microscope.
After performing in vivo chemiluminescence imaging of neutrophils using BTPDNe in psoriasis-bearing mice with 2 day IMQ treatment, fresh section slices from dorsal skins were stained with Ly6G. Immunofluorescence imaging of slices with activated BTPDNe in green color was observed upon excitation at 405 nm and emission at 500-550 nm, while red color from Ly6G was observed upon excitation from 633-647 nm and emission at 660 nm. The immunofluorescence imaging was acquired by Nikon ECLIPSE 80i microscope.

SMILES strings stand for the structures.

With `COC1(c2ccc(-c3nc4ccccc4s3)c(OCc3ccc(NC(=O)[C@@H](NC(=O)[C@@H]4CCCN4C(=O)[C@H](C)NC(=O)[C@H](C)NC(C)=O)C(C)C)cc3)c2)OOC12C1CC3CC(C1)CC2C3` (stereo partly shown) [BTPDNe], the “chemiluminescent signal from dorsal skins vs control group, day 1” value with IMQ-induced psoriasis (day 1 post IMQ) worked out at 3.1 fold. In addition, in the test with IMQ-induced psoriasis (day 2 post IMQ), the “chemiluminescent signal from dorsal skins vs control group, day 2” value is on record as 3.7 fold. Further, in the test with IMQ-induced psoriasis (day 3 post IMQ), the “chemiluminescent signal from dorsal skins vs control group, day 3” value is recorded as 2.9 fold. Further, in the test on dorsal skins of mice, the “colocalization of probe activation with neutrophil marker” value is given as “colocalized well with APC-Ly6G”.
